Like-named read-outs stand apart in the source and are kept apart here.
Tests used:
[1] = molecular target: T1, Lipoxidase from Glycine max (15- LOX) (Glycine max, UniProt P08170); set-up: method as in PMID 29847215; settings: read-out: IC50 (LOX enzyme); previous study ref 16; cited from earlier work
T1 construct: purchased Sigma (Sigma-Aldrich, UK)
T1 sequence (P08170 1-839): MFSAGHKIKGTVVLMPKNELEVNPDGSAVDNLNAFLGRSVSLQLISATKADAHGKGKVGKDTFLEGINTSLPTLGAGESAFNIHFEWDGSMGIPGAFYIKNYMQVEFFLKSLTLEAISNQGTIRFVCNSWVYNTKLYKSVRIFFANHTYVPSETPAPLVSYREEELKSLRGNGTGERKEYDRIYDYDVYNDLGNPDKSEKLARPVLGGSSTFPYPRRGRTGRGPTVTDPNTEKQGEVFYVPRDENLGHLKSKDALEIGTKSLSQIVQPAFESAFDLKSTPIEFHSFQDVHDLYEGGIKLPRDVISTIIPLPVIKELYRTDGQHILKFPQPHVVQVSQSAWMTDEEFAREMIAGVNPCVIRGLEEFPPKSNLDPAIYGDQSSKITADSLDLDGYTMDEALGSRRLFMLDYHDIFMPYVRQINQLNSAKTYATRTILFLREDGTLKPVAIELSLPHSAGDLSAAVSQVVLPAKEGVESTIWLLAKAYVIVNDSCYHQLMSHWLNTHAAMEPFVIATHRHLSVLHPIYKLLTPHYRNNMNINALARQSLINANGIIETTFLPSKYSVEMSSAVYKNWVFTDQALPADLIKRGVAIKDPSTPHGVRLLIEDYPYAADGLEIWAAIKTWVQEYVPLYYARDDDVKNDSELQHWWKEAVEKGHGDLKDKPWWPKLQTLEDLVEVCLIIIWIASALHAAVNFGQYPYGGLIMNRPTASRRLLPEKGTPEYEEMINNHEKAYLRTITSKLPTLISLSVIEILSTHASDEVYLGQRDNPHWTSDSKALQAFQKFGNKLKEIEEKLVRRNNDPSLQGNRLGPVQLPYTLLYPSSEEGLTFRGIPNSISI

[2] = FCA-induced arthritis: body weight measurement; assay type: in vivo, Sprague–Dawley (SD) rats; settings: FCA rats
Experimental: Chronic inflammation induced by Freund's Complete Adjuvant contains a suspension of heat-killed Mycobacterium tuberculosis in the vehicle (Chondrex, Labex Corporation). 100 μL of FCA (10 mg/mL) was injected intradermally to the left-hand paw of SD rats[42]. […] Induction of inflammation became chronic by 9–12 days and then rats were divided into 7 groups having 6 rats in each group. Everything possible was done to minimize the suffering of experimental animals. Minimum number of rats only were drafted to generate reliable data. 42 rats were randomly allocated into seven groups (6 × 7).
Group I (n = 6) served as normal rats that received an equal volume of vehicle control. Group II (n = 6) was arthritic model control treated with vehicle only. Group III (n = 6) was arthritic control which received the diclofenac (10 mg.kg^–1). Groups IV (n = 6), V (n = 6), VI (n = 6) and VII (n = 6) were treated with a low and high dose of methyl gallate (20 mg.kg^–1, 40 mg.kg^–1) and MGSD 1 (1 mg.kg^–1, 10 mg.kg^–1). The drugs were orally administered through oral gavage daily in PBS vehicle for 28 days.
The bodyweight of the animals was measured every day after the commencement of the experiment till the end (28th day). The weight change was calculated using the formula: Weightchange%=Wt-Wo/[…], where Wt is the weight of the animal at time t
Wo is the weight of the animal on the initial day.

[3] = molecular target: T1, Lipoxidase from Glycine max (15- LOX); test: Michaelis–Menten enzyme kinetics (Lineweaver-Burk); assay type: biochemical; settings: for IC50: Cheng–Prusoff from Ki
Experimental: To identify the mode of inhibition, enzyme kinetics assay was performed with MGSDs. For the kinetic analysis different substrate concentrations of 18, 27, 36, 45, 54, 63 µM were prepared in 0.2 mM borate buffer (H 9)[16]. The assay mixture was made of 50 µL of LOX, 50 µL of the test solution and different concentrations of the substrate. The final volume was made upto 2 mL with corresponding borate buffer quantity. The activity of LOX was measured by the formation of […], which was monitored at 234 nm on spectrophotometer, (HITACHI U 2900, Japan). The reaction was measured at a time span of 300 s. The same experiment was repeated in the presence of 0.1, 0.08 and 0.06 μM concentration of MGSDs. The Line Weaver-Burk plot was constructed and Michaelis–Menten constant (Km) and Maximal Velocity (Vmax) were determined from the plot. From the Km and Vmax obtained, the inhibitor constant, Ki was calculated using the following equation derived from the Michaelis–Menten Equation: Km′=Km1+I0/Ki. The IC50was calculated using the Cheng–Prusoff equation, Ki=IC50/1+S/Km.

[4] = Solubility noted on sample preparation; assay type: physicochemical; settings: water
[5] = molecular target: T2, LOX (Glycine max, UniProt P08170); test: Fluorescence quenching studies; assay type: binding; settings: 296 K, pH 9
T2 construct: purchased Sigma (Sigma-Aldrich, UK)
T2 sequence (P08170 1-839): T1 sequence (P08170 1-839)
From the text: To analyze the type of mechanism, the data of fluorescence of LOX was plotted, as relative fluorescence intensity (F0/F), against MGSDs. Here F and F0 are the fluorescence intensity in the presence and absence of MGSDs respectively. The Stern–Volmer constants were obtained from the plot by linear regression using the expression: F0/F=1+KsvQ.
Ksv is the Stern–Volmer constant and [Q] is the respective concentration of derivatives. Ksv which depicts the binding affinity between the fluorophore (protein) and quencher (ligand), were obtained from the slopes of the plot (Supplementary Fig. 15). […] The Fluorescence quenching data provided information about the binding constant (K), the number of binding sites (n), and the values could be arrived by applying the equation. Log F0-F/F=log K+nlogQ.
The Fluoromax-4 spectrophotometer (Spectra-NanoLED source 278) was used for studying fluorescence quenching of the compound. Bandwidth set at 5 nm for both excitation and emission spectra. The wavelength was set for excitation at 280 nm and the emission was recorded at 290–450 nm using 1.0 cm cell at 296 K temperature. The LOX with a concentration of 7 μM, dissolved in borate buffer at pH 9 and ligands at the concentrations of 35, 70, 105, 140, 175, 210, 245 and 280 μM were used for the experiment.

IC50 [3] | IC50 ([3]; abstract) | Ki ([3]; linoleic acid substrate, competitive) | solubility [4] | Kd ([5]; read-out: Binding constant (K) (converted)) | Quenching constant (Ksv) ([5]; Stern–Volmer) | SMILES | IC50 [1] | Percentage of body weight (Mean ± SEM) 9th day ([2]; 20 mg.kg^−1 oral) | Percentage of body weight (Mean ± SEM) 18th day ([2]; 20 mg.kg^−1 oral) | Percentage of body weight (Mean ± SEM) 28th day ([2]; 20 mg.kg^−1 oral) | Percentage of body weight (Mean ± SEM) 9th day ([2]; 40 mg.kg^−1 oral) | Percentage of body weight (Mean ± SEM) 18th day ([2]; 40 mg.kg^−1 oral) | Percentage of body weight (Mean ± SEM) 28th day ([2]; 40 mg.kg^−1 oral) | Percentage of body weight (Mean ± SEM) 9th day ([2]; 1 mg.kg^−1 oral) | Percentage of body weight (Mean ± SEM) 18th day ([2]; 1 mg.kg^−1 oral) | Percentage of body weight (Mean ± SEM) 28th day ([2]; 1 mg.kg^−1 oral) | Percentage of body weight (Mean ± SEM) 9th day ([2]; 10 mg.kg^−1 oral) | Percentage of body weight (Mean ± SEM) 18th day ([2]; 10 mg.kg^−1 oral) | Percentage of body weight (Mean ± SEM) 28th day ([2]; 10 mg.kg^−1 oral)
– | – | – | – | – | – | COC(=O)c1cc(O)c(O)c(O)c1 [Methyl gallate] | 30700 nM | 9.43 ± 0.84% | 23.61 ± 0.65% | 34.17 ± 0.23 % | 10.34 ± 0.52% | 22.42 ± 0.28% | 30.99 ± 0.23 % | – | – | – | – | – | –
102 nM | 100 nM | 30 nM | soluble in water | 752000 nM | 6200 M⁻¹ | O=C(O)COc1cc(C(=O)O)cc(OCC(=O)O)c1OCC(=O)O [MGSD 1, 2,2′,2″-((5-carboxybenzene-1,2,3-triyl)tris(oxy)) tri acetic acid] | – | – | – | – | – | – | – | 13.40 ± 0.26 % | 25.99 ± 51 % | 40.15 ± 0.00 % | 14.47 ± 1.13 % | 30.20 ± 1.57 % | 38.44 ± 1.81 %

— paper PMC10313808, “Lipoxygenase inhibitory synthetic derivatives of methyl gallate regulate gene expressions of COX-2 and cytokines to reduce animal model arthritis” (Scientific Reports, 2023)
